Measurements reported in patent publication US20170071879A1, “PROTOTYPICAL ANALGESIC PROFILE OF 3,3-DIPHENYL-N-(1-PHENYLETHYL)PROPAN-1-AMINE (FENDILINE)” (priority 2015, published 2017).
Where two headings read alike, the source gives them in different places.

Key:
[1] = test system: Paclitaxel induced neuropathic sensitization (PINS); test: Paclitaxel induced neuropathic sensitization (PINS) in the formalin test of pain; format: in vivo; conditions: mice; for suppression of PINS: 35-40 mn central sensitization phase, formalin induced pain
Experimental: Fendiline at 1 or 5 mg/kg, per os (po) suppressed the PINS by 75% or 63%, respectively, in the 35-40 mn central sensitization phase, in the formalin induced pain, in mice (Compound A1).
When fendiline was administered at 25 or 75 mg/kg (po) per os (po), PINS diminished by 181% or 275%, respectively in mice (Compound A2), i.e., less pain reaction than the control which hadn't receive Paclitaxel.

sigma-1 = sigma-1 (Homo sapiens, UniProt Q99720); test: sigma-1 affinity; format: binding
Chain of sigma-1 (Q99720 whole entry): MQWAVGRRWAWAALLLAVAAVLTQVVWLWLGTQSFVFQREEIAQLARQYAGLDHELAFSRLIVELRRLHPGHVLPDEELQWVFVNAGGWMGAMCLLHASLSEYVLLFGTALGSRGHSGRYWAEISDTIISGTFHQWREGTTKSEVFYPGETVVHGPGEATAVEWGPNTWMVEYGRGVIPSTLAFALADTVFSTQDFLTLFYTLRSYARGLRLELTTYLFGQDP

sigma-2 receptors = sigma-2 receptors (Homo sapiens, UniProt Q5BJF2); test: sigma-2 receptor affinity; format: binding
Chain of sigma-2 receptors (Q5BJF2 whole entry): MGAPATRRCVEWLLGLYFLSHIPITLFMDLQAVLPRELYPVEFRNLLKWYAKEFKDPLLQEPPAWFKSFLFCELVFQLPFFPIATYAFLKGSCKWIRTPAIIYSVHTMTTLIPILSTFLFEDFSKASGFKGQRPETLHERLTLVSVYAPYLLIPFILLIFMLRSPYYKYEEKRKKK

[2] = test system: Maximal Electrochoc Seizures (MES); test: Maximal Electrochoc Seizures (MES); format: in vivo; conditions: mice
[3] = test system: Pentylenetetrazole (PTZ) convulsions; test: Pentylenetetrazole (PTZ) convulsions; format: in vivo; conditions: mice
brain dopamine turnover [4] = test: brain dopamine turnover, mice; format: in vivo; conditions: 5-50 mg/kg ip
Description: (§1) It could be co-administered with the μ-ORAs amplifying their analgesic activity and, more importantly, protecting against the opioid dependence of the μ-ORAs.

brain dopamine turnover [5] = test: brain dopamine turnover, rats; format: in vivo; conditions: 5-50 mg/kg ip
Description: as §1

brain dopamine turnover [6] = conditions: mice; cited from earlier work
brain dopamine turnover [7] = conditions: rats; cited from earlier work

**Q.** What does the source list for `CC(NCCC(c1ccccc1)c1ccccc1)c1ccccc1` (stereo not drawn) [Fendiline, 3,3-diphenyl-N-(1-phenylethyl) propan-1-amine]?
**A.** suppression of PINS ([1]; 1 mg/kg po): 75%; suppression of PINS ([1]; 5 mg/kg po): 63%; PINS diminished ([1]; 25 mg/kg po): 181%; PINS diminished ([1]; 75 mg/kg po): 275%; Ki (sigma-1): 14 to 18 nM; Ki (sigma-2 receptors): 730 to 850 nM; anticonvulsive activity in MES [2]: absence of anticonvulsive activities; anticonvulsive activity in PTZ convulsions [3]: absence of anticonvulsive activities; brain DA turnover (brain dopamine turnover [4]): decrease of the DA turnover; brain DA turnover (brain dopamine turnover [5]): decrease of the DA turnover; brain dopamine turnover (brain dopamine turnover [6]): decrease of the brain dopamine turnover; brain dopamine turnover (brain dopamine turnover [7]): decrease of the brain dopamine turnover
